ChEMBL document CHEMBL1201862, “PubChem BioAssay data set” (2004)
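Where inhibition never reached the appropriate level, the endpoint shown equals the highest concentration tested. Otherwise, values were interpolated linearly from a five-concentration, 48-hour dose response in 96-well plates. GI50: concentration for 50% inhibition of growth.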 Calls of active or inactive are those of the source. Cut-off read from the data, not from the text of the source: active = GI50 up to about 1.1 µM and inactive = higher.

What was measured:
Experiment in all cases: NCI anticancer screen, dose series, 48 h
[1] = system: RXF 631
[2] = system: LXFL 529
[3] = system: KM-20L2
[4] = system: DMS-114
[5] = system: M19-MEL
[6] = system: SNB-78
[7] = system: XF498
[8] = system: HOP-18
[9] = system: DLD-1

| SMILES | GI50 [1] | GI50 [2] | GI50 [3] | GI50 [4] | GI50 [5] | GI50 [6] | GI50 [7] | GI50 [8] | GI50 [9] |
| --- | --- | --- | --- | --- | --- | --- | --- | --- | --- |
| CC1CCC2(C)C(CC=C(C=O)C2(O)C=O)C12CO2 (configuration not stated) | 1.99 µM (inactive) | 1.54 µM (inactive) | 2.49 µM (inactive) | 1.57 µM (inactive) | 1.73 µM (inactive) | 2.07 µM (inactive) | 2.17 µM (inactive) |  |  |
| CN1CC(=O)N2Cc3ccccc3-n3cccc3C2C1 (configuration not stated) | > 100 µM (inactive) | > 100 µM (inactive) | > 100 µM (inactive) |  | > 100 µM (inactive) | > 100 µM (inactive) | > 100 µM (inactive) | 4.92 µM (inactive) | > 100 µM (inactive) |
| O=[N+]([O-])CCc1cccc([N+](=O)[O-])c1 |  | > 100 µM (inactive) | > 100 µM (inactive) | > 100 µM (inactive) | > 100 µM (inactive) | > 100 µM (inactive) |  | > 100 µM (inactive) | > 100 µM (inactive) |
| NC(=S)N/N=C1/C(=O)N(c2ccccc2)C(=O)C1C(=O)Nc1ccccc1 (configuration not stated) | > 100 µM (inactive) | > 100 µM (inactive) | > 100 µM (inactive) | > 100 µM (inactive) | > 100 µM (inactive) | > 100 µM (inactive) | > 100 µM (inactive) | > 100 µM (inactive) |  |
| COc1cc([C@@H]2c3cc4c(cc3[C@@H](OC3OC5CO[C@@H](c6cccs6)OC5C(O)C3O)[C@H]3COC(=O)[C@H]23)OCO4)cc(OC)c1O (some centres not stated) |  |  | 2.12 µM (inactive) |  | 0.828 µM (active) | 1.08 µM (active) | 0.31 µM (active) | 1.57 µM (inactive) | 2.18 µM (inactive) |
| COc1ccc2c(c1)C(CCN)C(=O)N2 (configuration not stated) | > 100 µM (inactive) | > 100 µM (inactive) | > 100 µM (inactive) | > 100 µM (inactive) | > 100 µM (inactive) | > 100 µM (inactive) | > 100 µM (inactive) | > 100 µM (inactive) | > 100 µM (inactive) |
| CC(=O)OCC(OC(C)=O)C(OC(C)=O)C(OC(C)=O)C(=O)CNn1c(-c2ccccc2)nc2ccc(Br)cc2c1=O (configuration not stated) |  | > 100 µM (inactive) | > 100 µM (inactive) | > 100 µM (inactive) | > 100 µM (inactive) | > 100 µM (inactive) | 21.2 µM (inactive) |  |  |
| CC1CSC(=S)N1C(=O)N1C(=S)SCC1C (configuration not stated) |  | 33.4 µM (inactive) | 38.7 µM (inactive) | 38.3 µM (inactive) | 25.6 µM (inactive) | 43.2 µM (inactive) |  | 53.6 µM (inactive) | 19.3 µM (inactive) |
| COc1cc(Br)c(C2OCCCO2)cc1OCc1ccccc1 | > 100 µM (inactive) | 48.2 µM (inactive) | > 100 µM (inactive) | 47.1 µM (inactive) | > 100 µM (inactive) | 61.4 µM (inactive) |  |  | 39.8 µM (inactive) |
| C#CCNC(=O)NC(CCCNC(=O)OCc1ccccc1)C(=O)OCc1ccccc1 (configuration not stated) | > 100 µM (inactive) | > 100 µM (inactive) | > 100 µM (inactive) | > 100 µM (inactive) | 77.1 µM (inactive) | > 100 µM (inactive) | 12.9 µM (inactive) |  | > 100 µM (inactive) |
| COc1ccc(/C=C/C(=O)c2sc(NC(=S)NC(=O)c3ccc(Cl)cc3)nc2C)cc1OC | 48.6 µM (inactive) | 32.2 µM (inactive) | > 100 µM (inactive) | 41.6 µM (inactive) | 53.2 µM (inactive) | 54.3 µM (inactive) | 34.8 µM (inactive) | 5.89 µM (inactive) | 49.4 µM (inactive) |
| O=C1N/C(=C\[N+](=O)[O-])c2ccccc21 | > 100 µM (inactive) | > 100 µM (inactive) | > 100 µM (inactive) | > 100 µM (inactive) | > 100 µM (inactive) | > 100 µM (inactive) |  | > 100 µM (inactive) | > 100 µM (inactive) |
| C=C(c1ccccc1)[C@@]1(O)CC[C@@H]1N(CC#N)Cc1ccccc1 |  | 15.9 µM (inactive) | 63.1 µM (inactive) | 17 µM (inactive) | 28.3 µM (inactive) | 31.2 µM (inactive) |  | 14.6 µM (inactive) | 19.6 µM (inactive) |
| CC(=O)O[C@H]1CCC2[C@@H]3CCC4Nc5c(cnn5-c5ccccc5)C[C@]4(C)C3CC[C@@]21C (some centres not stated) | 14.9 µM (inactive) | 12.6 µM (inactive) | 8 µM (inactive) | 11.7 µM (inactive) | 11.7 µM (inactive) | 14.4 µM (inactive) | 6.52 µM (inactive) | 31.8 µM (inactive) | 32.7 µM (inactive) |
| CCCN(CCCCC(NC(C)=O)C(=O)NCc1ccccc1)C(=O)NCCCl (configuration not stated) | > 100 µM (inactive) | > 100 µM (inactive) | > 100 µM (inactive) | > 100 µM (inactive) | > 100 µM (inactive) |  | > 100 µM (inactive) | > 100 µM (inactive) | > 100 µM (inactive) |
| CC(=O)N1c2ccccc2C2=CC3C4C(=O)N(c5ccccc5)C(=O)C4C21C1C(=O)N(c2ccccc2)C(=O)C31 (configuration not stated) |  | 81.3 µM (inactive) | 30.3 µM (inactive) | 4.27 µM (inactive) |  | 84.5 µM (inactive) | 10.9 µM (inactive) | 34.4 µM (inactive) | 23.4 µM (inactive) |
| CC1=CC(=O)c2cccc(O)c2C1=O |  | 1.67 µM (inactive) | 20.5 µM (inactive) | 2.74 µM (inactive) | 1.98 µM (inactive) | > 32.1 µM (inactive) | 1.79 µM (inactive) | 1.7 µM (inactive) | 1.66 µM (inactive) |
| Nc1c(-c2ccccc2-c2c(N)[n+]([O-])c3ccccc3[n+]2[O-])[n+]([O-])c2ccccc2[n+]1[O-] |  | 6.19 µM (inactive) | 4.33 µM (inactive) | 3.36 µM (inactive) | 8.41 µM (inactive) | 71.8 µM (inactive) |  | 7.71 µM (inactive) | 4.63 µM (inactive) |
| COc1cc2cc3c4c(cc(OC)c(OC)c4c2cc1OC)CCN3C(=O)CCC(=O)NCCCN(C)C |  | 61 µM (inactive) | 24.4 µM (inactive) | 27.8 µM (inactive) | 22.8 µM (inactive) | > 100 µM (inactive) | 24.9 µM (inactive) | > 100 µM (inactive) | 16.9 µM (inactive) |
| COc1cc(CNc2nc3ccc(C(F)(F)F)cc3nc2-c2ccccc2)cc(OC)c1OC | > 100 µM (inactive) | 24.8 µM (inactive) | > 100 µM (inactive) |  | 46.2 µM (inactive) | 14.5 µM (inactive) | 56.1 µM (inactive) |  | 48.6 µM (inactive) |
| O=C1O[C@@H](c2ccccc2)C[C@@H]1CN1CCOCC1 | > 100 µM (inactive) | > 100 µM (inactive) | > 100 µM (inactive) | > 100 µM (inactive) |  | > 100 µM (inactive) | > 100 µM (inactive) |  | > 100 µM (inactive) |
| O=C1c2ccncc2C(=O)c2c(O)ccc(O)c21 |  | 10.3 µM (inactive) | 2.88 µM (inactive) | 3.01 µM (inactive) | 1.32 µM (inactive) |  | 4.16 µM (inactive) | 12.9 µM (inactive) |  |
| C1CSCCSCCCS[C@@H]2CCCCC2SC1 (some centres not stated) |  | > 100 µM (inactive) | > 100 µM (inactive) | 28.2 µM (inactive) | > 100 µM (inactive) | > 100 µM (inactive) |  | > 100 µM (inactive) | > 100 µM (inactive) |
| COc1ccc(C2=C(Cl)c3cc(OC)c(OC)cc3C2Cl)cc1OC (configuration not stated) | 19.1 µM (inactive) |  | 15.6 µM (inactive) |  | 17.3 µM (inactive) | 20.7 µM (inactive) | 16 µM (inactive) | 21.7 µM (inactive) | 15.3 µM (inactive) |
| COc1cc(NS(C)(=O)=O)ccc1NCc1c2ccccc2nc2ccccc12 | 15 µM (inactive) | 29 µM (inactive) | 50.8 µM (inactive) | 17.3 µM (inactive) | > 10 µM (inactive) |  | 33.4 µM (inactive) |  | 17.1 µM (inactive) |
| O=C(NCCCN1CCN(CCCNC(=O)c2cnc3ccccc3n2)CC1)c1cnc2ccccc2n1 | > 100 µM (inactive) | > 100 µM (inactive) | > 100 µM (inactive) | 70.1 µM (inactive) | > 100 µM (inactive) | > 100 µM (inactive) |  | > 100 µM (inactive) | > 100 µM (inactive) |
| COc1ccc(C2=NOP(c3ccccc3)(c3ccccc3)(c3ccccc3)C2)cc1 | 22.4 µM (inactive) | 5.57 µM (inactive) | 10 µM (inactive) | 8.61 µM (inactive) | 21.7 µM (inactive) | 36.5 µM (inactive) | 20.7 µM (inactive) | 24.9 µM (inactive) | 20.8 µM (inactive) |
